From ChEMBL document CHEMBL1144364, “Synthesis and biological activity of the tea catechin metabolites, M4 and M6 and their methoxy-derivatives” (Bioorg Med Chem Lett, 2005)
Each block holds one compound with its values, some of them ahead of it. Active and inactive are the calls of the source. No cut-off for these calls is given here.

How the values were obtained:
[1] = Percent inhibition of growth of human esophageal squamous cell carcinoma cells, KYSE150 cells, at 50 uM concentration (Range=20-40%); format: functional; details: KYSE-150
HT-29 [2] = assay: Percent inhibition of growth of human colon adenocarcinoma cells, HT-29 cells, at 50 uM concentration; NE=No effect; format: functional, cell-based
Mus musculus [3] = species: Mus musculus; assay: Evaluated to inhibit the release of arachidonic acid and the production of nitric oxide(NO) by lipopolysaccharide (LPS)-stimulated murine macrophages (RAW264.7); format: functional, organism-based
[4] = Inhibitory concentration against human esophageal squamous cell carcinoma cells, KYSE150 cells (Range=15-73); format: functional
INT-407 (Homo sapiens) [5] = assay: Inhibitory concentration against an immortalized human intestinal epithelial cells, INT-407 cells (Range=15-73); details: epithelial cell
[6] = Inhibitory concentration against an immortalized rat intestinal epithelial cell line, IEC-6 cell line (Range=15-73); format: functional, cell-based
HT-29 [7] = assay: Inhibitory concentration against human colon adenocarcinoma cells, HT-29 cells (Range=15-73); format: functional, cell-based
HCT-116 [8] = assay: Inhibitory concentration against human colon adenocarcinoma cells, HCT116 cells (Range=15-73); format: functional, cell-based
HCT-116 [9] = assay: Percent inhibition of growth of human colon adenocarcinoma cells, HCT116 cells; format: functional
[10] = Percent inhibition of growth of an immortalized rat intestinal epithelial cell line, IEC-6 cell line; format: functional
[11] = Percent inhibition of growth of human esophageal squamous cell carcinoma cells, KYSE150 cells; format: functional
HT-29 [12] = assay: Percent inhibition of growth of human colon adenocarcinoma cells, HT-29 cells; format: functional
INT-407 (Homo sapiens) [13] = assay: Percent inhibition of growth of an immortalized human intestinal epithelial cells, INT-407 cells
Mus musculus [14] = species: Mus musculus; assay: Evaluated to inhibit the release of arachidonic acid and the production of nitric oxide(NO) by lipopolysaccharide (LPS)-stimulated murine macrophages (RAW264.7); NE=No effect; format: functional, organism-based

Compound: O=C1CCC(Cc2ccc(O)c(O)c2)O1 (stereo not drawn)
inhibition at 50 µM [1]: 40%
inhibition (HT-29 [2]): inactive

Compound: COc1ccc(CC2CCC(=O)O2)cc1O (stereo not drawn)
inhibition at 50 µM [1]: 40%
inhibition (HT-29 [2]): inactive

IC50 (Mus musculus [3]): 20 µM
IC50 [4]: 73 µM
IC50 (HT-29 [7]): 73 µM
IC50 (HCT-116 [8]): 73 µM
Compound: O=C1CCC(Cc2cc(O)c(O)c(O)c2)O1 (stereo not drawn)
IC50 (INT-407 (Homo sapiens) [5]): 73 µM
IC50 [6]: 73 µM

IC50 (Mus musculus [14]): Not Active
Compound: COc1cc(CC2CCC(=O)O2)cc(OC)c1OC (stereo not drawn)
Inhibition (HCT-116 [9]): <20%
Inhibition [10]: <20%
Inhibition [11]: <20%
Inhibition (HT-29 [12]): <20%
Inhibition (INT-407 (Homo sapiens) [13]): <20%

Compound: COc1ccc(CC2CCC(=O)O2)cc1OC (stereo not drawn)
inhibition at 50 µM [1]: 40%
inhibition (HT-29 [2]): inactive
